Reference: patent US10420740B2, “Baclofen formulations and methods for making same” (SAOL INTERNATIONAL LIMITED, priority 2011, dated 2019)
One block for each compound: values may come before it.

Legend:
[1] = Rotarod (impaired motor skills) after intrathecal delivery to rats; assay type: in vivo; conditions: equivalent doses, data not shown
Protocol: Studies were performed to examine the effects of different baclofen compositions delivered intrathecally to rats. In one study, the therapeutic response mediated by spinal GABA-b receptors (thermal analgesia) with a nonspecific side effect (impaired motor skills on the rotarod) caused by L or DL-baclofen were compared. Equivalent doses of L-baclofen and DL-baclofen (adjusted to deliver the same amount of L-baclofen) produced very similar analgesic activity in the thermal nociception assay, while D-baclofen was ineffective (data not shown).

[2] = Comparison of R isomer and racemic baclofen for solubility, stability and pH; assay type: physicochemical; conditions: data not shown
Text: Accordingly, the Examples presented herein, which employed a racemic mixture, are also applicable to the L-isomer […].

[3] = therapeutically effective intrathecal concentrations, injected into the intrathecal space of a patient; cited from earlier work
[4] = reported by some sources; equilibrium with particulate baclofen present; cited from earlier work
[5] = Stability of baclofen in sulfate or phosphate solutions over 9 weeks; assay type: physicochemical; conditions: phosphate or sulfate buffer with NaCl, pH 6, aqueous buffer
Protocol: The formulations were stored at 37° C., ambient temperature, and 4° C. over 9 weeks. pH, drug concentration, and 4-CPP were measured. Physical properties, such as particulate, precipitation, color and the like were observed.

[6] = pH profile of baclofen prior to steam sterilization and 4-CPP impurity levels post-steam sterilization; assay type: physicochemical; design: unit not given here; conditions: 4-CPP post-steam sterilization
Text: In some embodiments, the present application provides methods and baclofen formulations having low 4-CPP concentrations by controlling the pH of the baclofen solution prior to steam sterilization, where the pH is in the range of between about 4.0 to about 7.0, the amount of 4-CPP formed is reduced, when the pH is raised to between about 5.0 to about 7.0 after heat sterilization. In some embodiments, the 4-CPP impurity levels are low at a pH of between about 4.0 to about 4.5. The pH profile of the baclofen, prior to steam sterilization and the 4-CPP impurity levels post-steam sterilization are shown below in Table A.

Structure (SMILES): NC[C@H](CC(=O)O)c1ccc(Cl)cc1 [D-baclofen]
motor impairment on the rotarod [1]: no significant effect

Structure (SMILES): NC[C@H](CC(=O)O)c1ccc(Cl)cc1 (single isomer, unassigned) [R isomer]
solubility, stability and pH relative to racemic mixtures of baclofen [2]: behave essentially the same

Structure (SMILES): NC[C@H](CC(=O)O)c1ccc(Cl)cc1 [L-baclofen]
motor impairment on the rotarod [1]: statistically less motor impairment on the rotarod than DL-baclofen

solubility at 9 weeks [5]: ≥ 4000 µg/mL
Impurity Level of 4-CPP ([6]; pH 4.0 prior to steam sterilization): 1.7
Impurity Level of 4-CPP ([6]; pH 4.2 prior to steam sterilization): 1.3
Impurity Level of 4-CPP ([6]; pH 4.4 prior to steam sterilization): 1.1
Impurity Level of 4-CPP ([6]; pH 4.6 prior to steam sterilization): 0.7
Impurity Level of 4-CPP ([6]; pH 4.8 prior to steam sterilization): 0.5
Impurity Level of 4-CPP ([6]; pH 5.0 prior to steam sterilization): 0.4
Impurity Level of 4-CPP ([6]; pH 5.2 prior to steam sterilization): 0.4
Impurity Level of 4-CPP ([6]; pH 5.4 prior to steam sterilization): 0.5
Impurity Level of 4-CPP ([6]; pH 5.6 prior to steam sterilization): 0.6
Impurity Level of 4-CPP ([6]; pH 5.8 prior to steam sterilization): 0.7
Impurity Level of 4-CPP ([6]; pH 6.0 prior to steam sterilization): 0.8
Impurity Level of 4-CPP ([6]; pH 6.2 prior to steam sterilization): 0.9
Impurity Level of 4-CPP ([6]; pH 6.4 prior to steam sterilization): 1.1
Impurity Level of 4-CPP ([6]; pH 6.6 prior to steam sterilization): 1.2
Impurity Level of 4-CPP ([6]; pH 6.8 prior to steam sterilization): 1.4
Impurity Level of 4-CPP ([6]; pH 7.0 prior to steam sterilization): 1.5
Structure (SMILES): NCC(CC(=O)O)c1ccc(Cl)cc1 (stereo not shown) [Baclofen, 4-amino-3-(p-chlorophenyl)butyric acid]
plasma concentrations, intrathecal relative to oral administration [3]: 100 times less
upper limit on room temperature aqueous solubility [4]: about 4 mg/mL
